Assay results: a melting point compilation (Tetko et al.)

Compared with O=C1NC(=O)N(CCC2=CCCCC2)C1=O, O=C1CC2(CCCCC2)C(=O)O1 is lower in melting point: 127 to 129 °C for the first, 54 to 58 °C for the second.

First: NC(=O)Cc1noc2ccccc12
Second: CCOCc1c(C(=O)O)oc2ccccc12
The melting point of the first is higher: 147 to 149 °C for the first, 103 to 105 °C for the second.

Compared with O=S1(=O)N=C(Cl)c2ccccc21, Clc1nc(-c2ccccc2)cs1 is lower in melting point: 121 to 123 °C for the first, 55 to 57 °C for the second.

Compared with COC(=O)c1ccc(Sc2ccc(Cl)cn2)c(N)c1, COC(=O)c1cc2ccccn2c1 is lower in melting point: 121 to 123 °C for the first, 94 to 96 °C for the second.

First: Clc1ccc2c(c1)NCCS2
Second: NCc1nc2cc(Cl)ccc2s1
The melting point of the first is higher: 110 to 112 °C for the first, 68 to 70 °C for the second.

Compared with O=C(CCl)Nc1ccc(F)cc1Cl, COC(=O)c1ccc(F)cc1S is lower in melting point: 76 to 78 °C for the first, 41 to 43 °C for the second.

Compared with CCOC(=O)c1cnn2c(O)cc(CCl)nc12, Cc1cc(C)n2ncc(C(=O)NCC(=O)O)c2n1 is higher in melting point: 215 to 217 °C for the first, 244 to 246 °C for the second.

First: O=C(CCl)NCc1ccccc1OC(F)(F)F
Second: Nc1cccc(OCC(F)(F)F)c1
The melting point of the first is higher: 66 to 68 °C for the first, 34 to 36 °C for the second.

Compared with O=Cc1ccc(N2CCCCC2)s1, Nc1ccc(F)c(NC(=O)C2CCCCC2)c1 is higher in melting point: 73 to 75 °C for the first, 157 to 159 °C for the second.

Compared with Cc1cc(=O)nc2sc(N3CCNCC3)nn12, CCN(CC)S(=O)(=O)c1ccc(N2CCOCC2)c(N)c1 is lower in melting point: 234 to 236 °C for the first, 94 to 96 °C for the second.

Compared with O=[N+]([O-])c1cc2nc(Cl)ccc2cc1F, O=C(O)Cc1ccc(C(F)(F)F)cc1[N+](=O)[O-] is higher in melting point: 130 to 132 °C for the first, 145 to 147 °C for the second.

Compared with Cc1cc(C(=O)CCl)c(C)n1-c1ccccn1, Cc1cc(-n2c(C)cc(C(=O)CCl)c2C)no1 is higher in melting point: 76 to 78 °C for the first, 110 to 112 °C for the second.

First: CC(C)(C)n1cc(C(=O)O)cn1
Second: O=C(O)c1cnn(-c2ccccc2Cl)c1
The melting point of the first is lower: 155 to 157 °C for the first, 170 to 172 °C for the second.

Compared with CCOC1CCN(C(=O)Nc2cccc(C(C)=O)c2)CC1, CC(=O)c1ccc(OCC(=O)N(C)C)cc1 is higher in melting point: 95 to 97 °C for the first, 125 to 127 °C for the second.

First: O=C(O)CCNC(=O)Nc1ccc(Br)cc1
Second: Cc1cc(Br)ccc1NS(C)(=O)=O
The melting point of the first is higher: 248 to 250 °C for the first, 144 to 146 °C for the second.

First: Cc1ccc(S(=O)(=O)N2CCC(N)CC2)cc1
Second: CC(C)CNS(=O)(=O)c1ccc(C(=O)O)cc1
The melting point of the first is lower: 105 to 109 °C for the first, 238 to 240 °C for the second.

First: Cn1cc(S(=O)(=O)Cl)cc1C(=O)C(Cl)(Cl)Cl
Second: NS(=O)(=O)c1ccc(Br)c(C(=O)O)c1
The melting point of the first is lower: 158 to 160 °C for the first, 231 to 233 °C for the second.

Compared with O=C(O)COc1ccc(-c2ccccc2)cc1, O=C(O)Cn1nc(-c2ccccc2)ccc1=O is higher in melting point: 195 to 197 °C for the first, 237 to 239 °C for the second.

Compared with Cc1ccc(C)c(-n2nnnc2SCC(=O)O)c1, COc1ccc(C)cc1Nc1nnc(S)s1 is higher in melting point: 157 to 159 °C for the first, 210 to 212 °C for the second.

Compared with CC(C)Oc1nnc(S)s1, CCc1ccc(Nc2nnc(S)s2)cc1 is higher in melting point: 105 to 107 °C for the first, 151 to 153 °C for the second.

First: COC(=O)C[C@H](NC(=O)OCC1c2ccccc2-c2ccccc21)C(=O)O
Second: Fc1ccccc1-c1nnc(S)n1Cc1ccccc1
The melting point of the first is higher: 115 to 117 °C for the first, 90 to 92 °C for the second.

First: O=C(NC1CCNCC1)c1ccc(F)cc1
Second: O=C(O)c1cc(Cl)ccc1OC1CCCC1
The melting point of the first is higher: 175 to 177 °C for the first, 95 to 97 °C for the second.

First: CSc1ccc(C#N)cc1N
Second: CSCc1nc(N)ccc1Cl
The melting point of the first is lower: 42 to 44 °C for the first, 70 to 72 °C for the second.

First: NS(=O)(=O)c1cc([N+](=O)[O-])c(Br)s1
Second: NS(=O)(=O)c1ccc2c(c1)CC(=O)N2
The melting point of the first is lower: 145 to 147 °C for the first, 252 to 254 °C for the second.

First: CC(C)(C)OC(=O)NC1CC2CCCC(C1)C2N (configuration not stated)
Second: NCCN1C(=O)C2C3C=CC(C3)C2C1=O (configuration not stated)
The melting point of the first is higher: 110 to 112 °C for the first, 69 to 71 °C for the second.

First: O=C1CC(c2ccc(Cl)cc2)CC(=O)N1
Second: O=C(O)C1CC(=O)N(c2ccccc2)C1 (configuration not stated)
The melting point of the first is lower: 152 to 154 °C for the first, 191 to 193 °C for the second.

First: NC(=O)c1cc(S(=O)(=O)NCC(=O)O)c[nH]1
Second: CNS(=O)(=O)c1cc(Br)ccc1C
The melting point of the first is higher: 279 to 281 °C for the first, 105 to 107 °C for the second.

First: Cn1c(Cl)nc2c1c(=O)[nH]c(=O)n2C
Second: Cn1c(=O)c2cc(N)cnc2n(C)c1=O
The melting point of the first is higher: 299 to 301 °C for the first, 219 to 221 °C for the second.

First: O=C(O)c1ccc(-n2cccc2)c(F)c1
Second: CCCCOc1ccc(C(=O)O)cc1OCCCC
The melting point of the first is higher: 252 to 254 °C for the first, 140 to 142 °C for the second.

First: Fc1nc(C(F)(F)F)ccc1I
Second: Nn1c(S)nnc1Cc1ccccc1F
The melting point of the first is lower: 48 to 50 °C for the first, 158 to 161 °C for the second.

First: COCCOc1ccc(Cl)c(C(=O)O)n1
Second: O=C(O)C=Cc1cc(Br)ccc1OCc1ccccc1Cl
The melting point of the first is lower: 89 to 91 °C for the first, 192 to 194 °C for the second.

First: Cc1nc(S)oc1C
Second: Cc1nn(Cc2ccccc2)c(C)c1C=NO
The melting point of the first is lower: 132 to 134 °C for the first, 135 to 137 °C for the second.

First: Nc1ccc2c(c1)C(=O)CCC2
Second: Nc1nc2ccccc2n1N
The melting point of the first is lower: 126 to 128 °C for the first, 259 to 261 °C for the second.

Compared with Nc1ccn(-c2ccccc2)n1, NNc1ccnc(F)c1 is higher in melting point: 77 to 79 °C for the first, 98 to 100 °C for the second.

Compared with Nc1nc(CCl)nc2sc3c(c12)CCCCC3, CN1CCN(CCC(=O)NN)CC1 is lower in melting point: 174 to 176 °C for the first, 87 to 89 °C for the second.

First: CN(C)C(C(=O)O)c1cccnc1 (configuration not stated)
Second: O=S1(=O)C=CC(N=C=S)C1 (configuration not stated)
The melting point of the first is higher: 184 to 186 °C for the first, 61 to 63 °C for the second.
